logD, logP and pKa data for 25 compounds are collected here from ChEMBL document CHEMBL5338767, “A Molecular Toolbox of Positron Emission Tomography Tracers for General Anesthesia Mechanism Research” (J Med Chem, 2023).

Data set [1] is described as follows: Lipophilicity, logD of compound at pH 7. The following applies: buffer.
The nature of data set [2]: Lipophilicity, logP of the compound. The note with it: octanol/water.
A short description of data set [3]: Dissociation constant, pKa of the compound. The class given is physicochemical.

The compound `CC(OC(F)F)C(F)(F)F` (configuration not stated) gave a log distribution coefficient (logD) in data set [1] of 2.12. The compound further returned a logP in data set [2] of 2.47.
In data set [1], `C[C@H](c1ccc(Cl)cc1)n1cncc1C(=O)OCC[18F]` registered a logD of 3.76. For the same compound, the pKa in data set [3] was 3.76. In data set [2], this compound gave a lipophilicity (logP) of 2.25.
`CCN(CCF)C[C@@H]1CN(C(=O)CO[11CH3])CCN1C(=O)Cc1ccc(C)c(C)c1` registered a pKa in data set [3] of 7.51. The same compound showed a logP in data set [2] of 1.53.
On to `CN(C)c1cccc2c(S(=O)(=O)N/N=C/c3ccc([18F])cc3)cccc12`, for which the logD in data set [1] amounted to 3.92. In data set [2], the logP was 4.94.
The like results for `FC(F)OC(F)C(F)(F)F` (configuration not stated) were, in that order, 1.88 and 2.16.
On to `CCOC(=O)c1ncn2c1CN(C)C(=O)c1cc([18F])ccc1-2`, for which the pKa in data set [3] is 0.86. The compound further displayed a logP in data set [2] of 1.11.
On to `FCOC(C(F)(F)F)C(F)(F)[18F]` (configuration not stated), for which the logD in data set [1] was 2.5. In data set [2], this compound yielded a logP of 2.24.
In turn, `[11CH3]C(=O)c1ccc2c(c1)CCN(CCCCc1ccccc1)CC2O` (configuration not stated) came in with a log distribution coefficient (logD) in data set [1] of 2.94. Moreover, the pKa in data set [3] was 8.78. Further, the logP in data set [2] stood at 4.14.
On to `CC(=O)N(Cc1ccccc1OCC[18F])c1ccccc1Oc1ccccc1`, for which the logP in data set [2] stood at 4.51.
Turning to `C[11CH2]OC(=O)c1cncn1[C@H](C)c1ccccc1`, the logD in data set [1] is given as 3.05. The compound further yielded a pKa in data set [3] of 4.23. In data set [2], this compound had a logP of 1.83.
The like results for `N#Cc1cc([18F])cc(C#Cc2ccccn2)c1` were, in that order, 3.38, 1.89 and 3.25.
The like results for `CN([11CH3])Cc1ccccc1Sc1ccc(C#N)cc1N` were, in that order, 0.89, 9.43 and 3.31.
Regarding `FC(F)([18F])C(Cl)Br` (configuration not stated), the logD in data set [1] came out at 2.33. This compound also gave a logP in data set [2] of 2.28.
Turning to `CC(C)C[C@H](N)[11C](=O)O`, in data set [1], the logD was -1.7. Moreover, the pKa in data set [3] was 10.2. The logP in data set [2] was -0.29.
The like results for `[18F]c1ccc2cnn(N=C3NCCN3)c2c1` were, in that order, 0.09, 7.94 and 1.11.
In data set [1], `[18F]c1ccc(C2CC3CCCC2N3)cn1` (single isomer, unassigned; (-)) yielded a logD of -0.76. In addition, the pKa in data set [3] came out at 9.28. This compound registered a logP in data set [2] of 1.75.
Turning to `[11CH3]OC(=O)c1cncn1Cc1ccccc1`, the logD in data set [1] was 2.19. The compound also had a pKa in data set [3] of 4.08. Moreover, the logP in data set [2] turned out to be 1.18.
Taken in the same sequence, the figures for `COc1cnc(OCc2cn(-c3ccc([18F])c(C)c3)nn2)nc1` were 1.55, 0.73 and 2.76.
As for `CCOC(=O)c1ncn2c1CN([11CH3])C(=O)c1cc(F)ccc1-2`, in data set [3], the pKa came to 0.86. Also, the logP in data set [2] stood at 1.11.
As for `Cc1cn([C@H]2C[C@H]([18F])[C@@H](CO)O2)c(=O)[nH]c1=O` [ALOVUDINE F-18], the logD in data set [1] is -0.2. In addition, in data set [3], the pKa is 13.7. The same compound registered a logP in data set [2] of -0.41.
The like results for `NC(=O)c1ccc(Oc2ccc(CN3CCC[C@H]3c3cccnc3)cc2)c([18F])c1` were, in that order, 2.07, 8.45 and 3.27.
As to `[11CH3]n1c2c(c3ccccc31)C[C@@]1(O)[C@H]3Cc4ccc(O)c5c4[C@@]1(CCN3CC1CC1)[C@H]2O5`, the pKa in data set [3] turned out to be 14.2. The logP in data set [2] came to 3.31.
`[18F]c1ncccc1OC[C@H]1CCN1` came in with a pKa in data set [3] of 8.95.
As to `[11CH3]OCc1scnc1N1CCN(C[C@H]2COc3ccccc3O2)CC1`, in data set [1], the logD came out at 2.02. This compound also showed a pKa in data set [3] of 7.21. The compound also yielded a logP in data set [2] of 2.65.
In turn, `O=S1(=O)c2cc(N3CCN4CCC3CC4)ccc2-c2cccc([18F])c21` came in with a logD in data set [1] of 1.72. The same compound came in with a pKa in data set [3] of 8.68. Further, the logP in data set [2] worked out at 2.71.
